According to BindingDB's records for patent US9090621 (Principia Biopharma, 2015):

Molecular target: Tyrosine-protein kinase BTK (Homo sapiens, UniProt Q06187)
Experiment: Enzymatic Activity Assay
Details: 25 °C
Description: A Caliper-based kinase assay (Caliper Life Sciences, Hopkinton, Mass.) was used to measure inhibition of Btk kinase activity of a compound of Formula (IA), (I′) or (I). […] The reaction was then terminated with EDTA, final concentration 20 mM and the phosphorylated reaction product was quantified on a Caliper Desktop Profiler (Caliper LabChip 3000).

Sequence of Tyrosine-protein kinase BTK (Q06187 whole entry): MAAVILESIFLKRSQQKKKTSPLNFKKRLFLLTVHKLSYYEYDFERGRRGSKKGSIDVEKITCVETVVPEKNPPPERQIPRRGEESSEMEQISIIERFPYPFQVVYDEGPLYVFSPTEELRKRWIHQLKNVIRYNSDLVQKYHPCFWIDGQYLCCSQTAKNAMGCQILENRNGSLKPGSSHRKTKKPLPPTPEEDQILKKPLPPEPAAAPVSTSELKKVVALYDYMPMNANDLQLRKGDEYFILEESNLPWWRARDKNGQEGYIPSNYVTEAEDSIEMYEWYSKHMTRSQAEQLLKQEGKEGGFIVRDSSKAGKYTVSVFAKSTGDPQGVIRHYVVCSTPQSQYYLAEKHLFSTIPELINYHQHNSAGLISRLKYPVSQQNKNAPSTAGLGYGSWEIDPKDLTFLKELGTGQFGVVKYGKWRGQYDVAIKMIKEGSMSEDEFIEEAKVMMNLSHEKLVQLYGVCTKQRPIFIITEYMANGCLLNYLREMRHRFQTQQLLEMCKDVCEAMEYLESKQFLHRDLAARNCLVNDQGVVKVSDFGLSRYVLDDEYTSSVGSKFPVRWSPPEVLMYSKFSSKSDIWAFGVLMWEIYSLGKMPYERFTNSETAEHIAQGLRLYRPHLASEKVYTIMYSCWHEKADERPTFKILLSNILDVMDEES

IC50: 1 nM
Structure (SMILES): COc1cc(-c2nn(C3CCCN(C(=O)C(C#N)=CC4CC4)C3)c3ncnc(N)c23)ccc1Oc1ccc(Cl)c(Cl)c1 (stereo unspecified) [US9090621, 5]
